Data from patent US20050100888A1, “Methods based on hormone dependency of primary cancer cells” (Imperial College Innovations Limited, priority 2002, published 2005).

Key:
estrogen receptor (ER) [1] = assay: viral ER reporter in ER negative breast cancer cell lines; format: cell-based, human; settings: virus 100:1
Experimental: FIG. 3: Reporter activity in variety of estrogen receptor alpha positive (MCF-7, T47-D, ZR75-1, BT474) and negative (Cal-51, SkBr3, and MDA-MB231 cell lines). For each figure, the order is as follows: (1) refers to the no ligand control.
For adenovirus infections, cell lines were plated in 96 wells at the given density in phenol red free DMEM supplemented with 5% double-stripped serum (PR/5% DSS). The following day cells were exposed to the given quantity of plaque forming units per cell (multiplicity of infection, MOI) in PR/SF medium. This was incubated at 37° C. for 1 hour after which the media was replaced by PR free/5% DSS containing the ligands.
(§1) Reporter Gene Assay 48 hours after virus infection, 20 ul of 20% Triton in PBS was added to each well and incubated at RT for 10 minutes. […] (CRPG) made up in TBS at a concentration of 8 mg/ml was then added to the wells and the plate was incubated, foil-wrapped, at 37° C. until a colour change was observed. Plate readings were taken at a wavelength of 547 nm.
We went on to test the virus reporter in a variety of ER positive and ER negative cell lines. Again 0.5×10^5 cells were infected with 100 virus per cell (100:1). Using the GFP virus it was evident that the infectability of the cell lines was variable. […]

estrogen receptor (ER) [2] = assay: adenoERreporter assay in fine needle aspirates (FNA) from recurrent breast cancer; format: cell-based, human
Experimental: Cells obtained from FNAs were collected in PBS (Sigma, Poole, UK) containing 2% FCS. If the aspirate was bloody, erythrocyte lysis buffer (0.155M NH4Cl, 10 mM KHCO3, 0.1 mM EDTA, pH 7.4) was used to lyse the red blood cells and after a further wash with PBS, the cells were re-suspended in culture media for counting and immediate infections.
For infections of primary cells, 6-10,000 cells/well were allowed and exposed to the given quantity of virus, after which they were pelleted and re-supended in 200 ul of PR free/5% DSS medium containing the appropriate ligands prior to plating into 96-well plates.
as §1
We purified breast cancer cells from metastatic fluid, both pleural and ascites as well as fine needle aspirates (FNA) from recurrent breast cancer. These cells were counted and infected with adenoERreporter and after 48 hours a β-gal assay was performed. We have infected 9 metastatic effusions including 2 cell lines of passage number two, derived from pleural effusions and 4 FNAs. Tables 3 and 4 show the treatment history and characteristics of the patients that provided the samples. Where possible, some of the fluid was sent for cytology and ER staining. However, this was not always feasible due to the variability of cancer cells in the metastatic fluid.

Q: With C[C@]12CC[C@@H]3c4ccc(O)cc4C[C@@H](CCCCCCCCC[S+]([O-])CCCC(F)(F)C(F)(F)F)[C@H]3[C@@H]1CC[C@@H]2O (stereo partly drawn) [ICI 182,780] as the molecule, how does the “effect on ERE driven β-gal reporter / baseline activity” value (estrogen receptor (ER) [1]) read?
A: did not have a significant effect on the baseline activity

Q: What about the “Reporter Assay: inhibition” value (estrogen receptor (ER) [2]; FNA summary table, N = 1, IHC ER−/PR−, ?Responder) of the same molecule?
A: OHT/ICI inhibit by × 1.8

Q: What about the “Reporter Activity” value (estrogen receptor (ER) [2]; Table 4 patient 8) T2GN0M0, primary ER++/PR−, FNA ER−/PR−, prior Arimidex 1y) of the same molecule?
A: x1.0
